This data set in a line: Inhibition of ABCG2 efflux pump in multi-drug resistance human HL-60 cells assessed as reversal of daunorubicin sensitivity.

Molecules are shown by their SMILES.

For the compound `CO[C@@H]1[C@H](N(C)C(=O)c2ccccc2)C[C@H]2O[C@]1(C)n1c3ccccc3c3c4c(c5c6ccccc6n2c5c31)C(=O)NC4` [PKC-412], the half-maximal inhibitory concentration (IC50) came to 4.44 µM.

Values taken from BindingDB's records for doi:10.1016/j.ejmech.2022.114542 (National Institute of Pharmaceutical Education and …, 2022).
